# Data reported in PubChem BioAssay (NCI).
#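 Test compounds were applied to cells in 96-well plates for 48 hours at 5 doses. GI50 = concentration required for 50% inhibition of growth. TGI marks complete inhibition of growth.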
# How the values were obtained:
# Assay in all cases: NCI-60 cell line screen, 48 h
# SK-MEL-28 melanoma = system: SK-MEL-28 melanoma
# SF-295 CNS = system: SF-295 CNS
# U251 CNS = system: U251 CNS
# NCI-H23 lung = system: NCI-H23 lung
# SNB-19 CNS = system: SNB-19 CNS
# SF-539 CNS = system: SF-539 CNS
# LOX IMVI melanoma = system: LOX IMVI melanoma
# SW-620 colon = system: SW-620 colon
# UACC-257 melanoma = system: UACC-257 melanoma
# HT29 colon = system: HT29 colon
Structure (SMILES),GI50 (SK-MEL-28 melanoma) [µM],TGI (SK-MEL-28 melanoma) [µM],GI50 (SF-295 CNS) [µM],TGI (SF-295 CNS) [µM],GI50 (U251 CNS) [µM],TGI (U251 CNS) [µM],GI50 (NCI-H23 lung) [µM],TGI (NCI-H23 lung) [µM],GI50 (SNB-19 CNS) [µM],TGI (SNB-19 CNS) [µM],GI50 (SF-539 CNS) [µM],TGI (SF-539 CNS) [µM],GI50 (LOX IMVI melanoma) [µM],TGI (LOX IMVI melanoma) [µM],GI50 (SW-620 colon) [µM],TGI (SW-620 colon) [µM],GI50 (UACC-257 melanoma) [µM],TGI (UACC-257 melanoma) [µM],GI50 (HT29 colon) [µM],TGI (HT29 colon) [µM]
CC(=O)[CH-]C(=O)c1ccccc1.CC(=O)[CH-]C(=O)c1ccccc1.Cl.[O-]c1ccnc2ccccc12.[O-]c1ccnc2ccccc12.[Ti+4],> 100,> 100,> 100,> 100,> 100,> 100,> 100,> 100,> 100,> 100,> 100,> 100,> 100,> 100,> 100,> 100,> 100,> 100,> 100,> 100
Oc1ccc2c(=S)cc(-c3ccc(Br)cc3)oc2c1O,2.94,28.7,4.01,29.8,2.44,8.93,1.52,6.38,2.95,> 100,1.98,7.28,1.18,3.87,2.6,21.6,2.88,8.25,4.56,25.9
O=C1c2ccccc2C(=O)N1CCCOCc1c[nH]c(=O)[nH]c1=O,,> 100,,> 100,,> 100,,> 100,,> 100,,> 100,,> 100,,> 100,,> 100,,> 100
COc1cccc(NC(=O)CSc2nnc(Cc3ccccc3)o2)c1,,> 100,,> 100,,> 100,,> 100,,> 100,,> 100,,> 100,,> 100,,> 100,,> 100
C#C[C@@]1(O)[C@@H](CO)O[C@@H](n2cc(Br)c3c(Cl)ccnc32)[C@@H]1O,> 100,> 100,1.03,> 100,40,> 100,1.86,> 100,1.54,> 100,0.357,11.1,0.289,2.15,0.552,> 100,> 100,> 100,0.964,> 100
CN(C)NC1=C([N+](=O)[O-])C=NN(c2ccccc2)C1,,3.21,,3.2,,3.17,,3.42,,4.98,,3.31,,3.11,,3.67,,3.57,,3.66
COC(=O)[C@]12CC[C@@H](C)[C@H](C)[C@@H]1C1=CC[C@@H]3[C@@]4(C)C(C=O)=C[C@@](C)(CO)[C@@H]4[C@H](O)C[C@@]3(C)[C@]1(C)CC2,3.33,12.4,3.94,16.5,3.83,13.8,2.97,12.2,7.69,21.7,10.1,22.8,2.77,11.2,4.23,15.8,3.11,13.1,2.44,7.54
COC(=O)[C@H](Cc1cn(C)cn1)NC(=O)[C@H](CC(=O)OCc1ccccc1)NC(=O)Nc1cc(C(F)(F)F)cc(C(F)(F)F)c1,9.51,21.6,10.9,24,2.61,7.85,15.8,30.7,13.8,28.5,12.4,25.6,2.96,8.9,6.66,21.1,6.34,19.1,13.9,28.8
C=C1C(=O)O[C@H](c2ccoc2)C[C@@H]1[C@@]1(C)CCCC2(C)C(=O)OCC21 (stereo not given in full),,> 100,,> 100,,> 100,,> 100,,> 100,,> 100,,> 100,,> 100,,> 100,,> 100
CN(c1ccccc1)c1cc2ccccc2nn1,,> 100,,> 100,,> 100,,> 100,,> 100,,> 100,,> 100,,> 100,,> 100,,> 100
Cc1cccc(C)c1NC(=O)CCC(=O)NC(N)=NC#N,,> 100,,> 100,,> 100,,> 100,,> 100,,> 100,,> 100,,> 100,,> 100,,> 100
O=C(Nc1nc(-c2ccc(Cl)cc2)cs1)c1cc(O)c(O)c(O)c1,303,> 5000,544,3280,156,1200,292,3030,144,> 5000,173,843,174,810,168,> 5000,278,2490,572,2250
C=C1C(=O)O[C@H]2[C@H]1CC/C(COC(=O)c1cccnc1N)=C\CC[C@@]1(C)O[C@@H]21,2.01,8.85,4.15,16,3.77,14.5,5.56,24.5,8.65,28.5,2.56,8.74,3.18,14,0.583,3.82,2.32,12.6,0.721,11
CN1CCC2(CC1)N=C(SCC(=O)Nc1cnc3ccccc3c1)C(c1ccc(Br)cc1)=N2,1.79,3.3,1.79,3.93,1.83,3.65,4.3,16.3,2.58,7.83,1.74,3.41,1.66,3.11,1.88,3.65,1.79,3.31,1.85,3.64
COc1ccc(CN2C(=O)[C@@H]3Cc4c(OC)c(C)c(OC)c(OC)c4[C@H](/C2=C\c2cc(OC)c(OC)c(C)c2OC)N3C(=O)OC(C)C)cc1,,> 100,,> 100,,> 100,,> 100,,> 100,,> 100,,> 100,,> 100,,> 100,,> 100
COc1cc2c(cc1OC)C(C(CCCCCC(CCC(C)C)C1NCCc3cc(OC)c(OC)cc31)CCC(C)C)NCC2 (stereo not given),1.85,3.28,1.64,3.43,0.285,0.979,1.66,3.18,1.45,2.87,1.79,3.27,0.194,0.408,0.193,0.387,1.63,3.08,0.328,0.874
C=C1c2nc3ccccc3n2C=C(c2cccc(Cl)c2)N1Cc1ccc(OC)cc1,10.5,54.4,1.42,6.91,0.768,> 100,0.77,> 35.7,1.04,> 100,0.745,4.56,0.878,21.5,0.441,> 78.2,5.64,> 100,7.15,53.2
COC(=O)C1=CC2C(=O)OC1C1C(=O)NC(=O)C21 (stereo not given),,> 100,,> 100,,> 100,,> 100,,> 100,,> 100,,> 100,,> 100,,> 100,,> 100
O=S(=O)(NC1=NCCN1C(=S)SN1CCn2c1nsc2=S)c1ccc(Oc2ccccc2)cc1,> 100,> 100,> 100,> 100,> 100,> 100,43,> 100,> 100,> 100,49.5,> 100,51,> 100,67,> 100,> 100,> 100,54.7,> 100
CCCCC(=O)N(c1ccc(Nc2c3ccccc3nc3cc([N+](=O)[O-])ccc23)cc1)S(C)(=O)=O,14.5,36.6,4.83,> 100,5.32,> 59.1,12.6,42.5,7.39,> 100,5.23,> 61.9,3.05,17.4,5.73,31,14.6,62.5,13.6,60.3
O=C(NC1CC1)c1c(O)[nH]c(=S)[nH]c1=O,,> 100,,> 100,,> 100,,> 100,,> 100,,> 100,,> 100,,> 100,,> 100,,> 100
